This passage reports IC50 results from patent US11919901B2 (Syndax Pharmaceuticals, Inc., priority 2021, dated 2024).

In this assay the test system is MV4-11 cells. Description: Cell proliferation assay MV4;11 (CellTiter-Glo, 72 hours). The assay is classed as cell-based. Conditions: Homo sapiens; MV4;11 leukemia cell line, 72 hours; read-out: MV4; 11 IC50. The method in brief:
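Luminescent CellTiter-Glo readout after 72 h culture, 37 °C, 5% CO2, expressed relative to vehicle-treated wells, with maximal inhibition taken at the highest dose. MLL-rearranged MV4-11 leukemia cells; final compound range 0.632 to 2000 nM in eight steps.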
(In ATP-based viability assays light output follows the ATP content of the culture.)

As for `CCN(C(=O)c1cc(F)ccc1Oc1cncnc1N1CC2(CCN(C[C@@H]3CC[C@@H](NS(=O)(=O)N4CCC4)CO3)CC2)C1)C(C)C` [Example 69, 2-((4-(7-(((2S,5R)-5-(Azetidine-1-sulfonamido)tetrahydro-2H-pyran-2-yl)methyl)-2,7-diazaspiro[3.5]nonan-2-yl)pyrimidin-5-yl)oxy)-N-ethyl-5-fluoro-N-isopropylbenzamide], the IC50 was less than 0.1 µM. To `CCN(C(=O)c1cc(F)ccc1Oc1cncnc1N1CC2(CCN(C[C@@H]3CC[C@@H](NS(N)(=O)=O)CO3)CC2)C1)C(C)C` [Example 73, N-Ethyl-5-fluoro-N-isopropyl-2-((4-(7-(((2S,5R)-5-(sulfamoylamino)tetrahydro-2H-pyran-2-yl)methyl)-2,7-diazaspiro[3.5]nonan-2-yl)pyrimidin-5-yl)oxy)benzamide] belongs 0.1 to 1 µM; to `CCN(C(=O)c1cc(F)ccc1Oc1cncnc1N1CC2(CCN(C[C@@H]3CC[C@@H](NS(=O)(=O)NC)CO3)CC2)C1)C(C)C` [Example 76, N-Ethyl-5-fluoro-N-isopropyl-2-((4-(7-(((2S,5R)-5-((N-methylsulfamoyl)amino)tetrahydro-2H-pyran-2-yl)methyl)-2,7-diazaspiro[3.5]nonan-2-yl)pyrimidin-5-yl)oxy)benzamide], less than 0.1 µM; to `CC(C)N(C(=O)c1cc(F)ccc1Oc1cncnc1N1CC2(CCN(C[C@@H]3CC[C@@H](NS(=O)(=O)N(C)C)CO3)CC2)C1)C(C)C` [Example 77, 2-((4-(7-(((2S,5R)-5-((N,N-Dimethylsulfamoyl)amino)tetrahydro-2H-pyran-2-yl)methyl)-2,7-diazaspiro[3.5]nonan-2-yl)pyrimidin-5-yl)oxy)-5-fluoro-N,N-diisopropylbenzamide], less than 0.1 µM. Consider `CC(C)N(C(=O)c1cc(F)ccc1Oc1cncnc1N1CC2(CCN(C[C@@H]3CC[C@@H](NS(=O)(=O)N4CCOCC4)CO3)CC2)C1)C(C)C` [Example 78, 5-Fluoro-N,N-diisopropyl-2-((4-(7-(((2S,5R)-5-(morpholine-4-sulfonamido)tetrahydro-2H-pyran-2-yl)methyl)-2,7-diazaspiro[3.5]nonan-2-yl)pyrimidin-5-yl)oxy)benzamide], for which the IC50 is less than 0.1 µM. To `CC(C)N(C(=O)c1cc(F)ccc1Oc1cncnc1N1CC2(CCN(C[C@@H]3CC[C@@H](NS(=O)(=O)N4CCC4)CO3)CC2)C1)C(C)C` [Example 88, 2-((4-(7-(((2S,5R)-5-(Azetidine-1-sulfonamido)tetrahydro-2H-pyran-2-yl)methyl)-2,7-diazaspiro[3.5]nonan-2-yl)pyrimidin-5-yl)oxy)-5-fluoro-N,N-diisopropylbenzamide] belongs less than 0.1 µM; to `CC(C)N(C(=O)c1cc(F)ccc1Oc1cncnc1N1CC2(CCN(C[C@@H]3CC[C@@H](NS(=O)(=O)N(C)C(C)C)CO3)CC2)C1)C(C)C` [Example 89, 5-Fluoro-N,N-diisopropyl-2-((4-(7-(((2S,5R)-5-((N-isopropyl-N-methylsulfamoyl)amino)tetrahydro-2H-pyran-2-yl)methyl)-2,7-diazaspiro[3.5]nonan-2-yl)pyrimidin-5-yl)oxy)benzamide], less than 0.1 µM; to `CC(C)N(C(=O)c1cc(F)ccc1Oc1cncnc1N1CC2(CCN(C[C@@H]3CC[C@@H](NS(N)(=O)=O)CO3)CC2)C1)C(C)C` [Example 90, 5-Fluoro-N,N-diisopropyl-2-((4-(7-(((2S,5R)-5-(sulfamoylamino)tetrahydro-2H-pyran-2-yl)methyl)-2,7-diazaspiro[3.5]nonan-2-yl)pyrimidin-5-yl)oxy)benzamide], less than 0.1 µM. As for `CC(C)N(C(=O)c1cc(F)ccc1Oc1cncnc1N1CC2(CCN(C[C@@H]3CC[C@@H](NS(=O)(=O)N(C)C)CO3)CC2)C1)C1CC1` [Example 93, N-Cyclopropyl-2-((4-(7-(((2S,5R)-5-((N,N-dimethylsulfamoyl)amino)tetrahydro-2H-pyran-2-yl)methyl)-2,7-diazaspiro[3.5]nonan-2-yl)pyrimidin-5-yl)oxy)-5-fluoro-N-isopropylbenzamide], the figure is less than 0.1 µM; as for `CC(C)N(CC(F)F)C(=O)c1cc(F)ccc1Oc1cncnc1N1CC2(CCN(C[C@@H]3CC[C@@H](NS(=O)(=O)N4CCOCC4)CO3)CC2)C1` [Example 94, N-(2,2-Difluoroethyl)-5-fluoro-N-isopropyl-2-((4-(7-(((2S,5R)-5-(morpholine-4-sulfonamido)tetrahydro-2H-pyran-2-yl)methyl)-2,7-diazaspiro[3.5]nonan-2-yl)pyrimidin-5-yl)oxy)benzamide], less than 0.1 µM. As for `CC(C)N(CC(F)F)C(=O)c1cc(F)ccc1Oc1cncnc1N1CC2(CCN(C[C@@H]3CC[C@@H](NS(=O)(=O)N(C)C)CO3)CC2)C1` [Example 95, N-(2,2-Difluoroethyl)-2-((4-(7-(((2S,5R)-5-((N,N-dimethylsulfamoyl)amino)tetrahydro-2H-pyran-2-yl)methyl)-2,7-diazaspiro[3.5]nonan-2-yl)pyrimidin-5-yl)oxy)-5-fluoro-N-isopropylbenzamide], the figure is less than 0.1 µM.

As to `CC(C)N(CC(F)F)C(=O)c1cc(F)ccc1Oc1cncnc1N1CC2(CCN(C[C@@H]3CC[C@@H](NS(C)(=O)=O)CO3)CC2)C1` [Example 96, N-(2,2-Difluoroethyl)-5-fluoro-N-isopropyl-2-((4-(7-(((2S,5R)-5-(methylsulfonamido)tetrahydro-2H-pyran-2-yl)methyl)-2,7-diazaspiro[3.5]nonan-2-yl)pyrimidin-5-yl)oxy)benzamide], the IC50 is less than 0.1 µM.

Regarding `CCN(CC)S(=O)(=O)N[C@@H]1CC[C@@H](CN2CCC3(CC2)CN(c2ncncc2Oc2ccc(F)cc2C(=O)N(CC(F)F)C(C)C)C3)OC1` [Example 97, 2-((4-(7-(((2S,5R)-5-((N,N-Diethylsulfamoyl)amino)tetrahydro-2H-pyran-2-yl)methyl)-2,7-diazaspiro[3.5]nonan-2-yl)pyrimidin-5-yl)oxy)-N-(2,2-difluoroethyl)-5-fluoro-N-isopropylbenzamide], the IC50 is less than 0.1 µM. As for `CC(C)N(CC(F)F)C(=O)c1cc(F)ccc1Oc1cncnc1N1CC2(CCN(C[C@@H]3CC[C@@H](NS(=O)(=O)N4CCC4)CO3)CC2)C1` [Example 99, 2-((4-(7-(((2S,5R)-5-(Azetidine-1-sulfonamido)tetrahydro-2H-pyran-2-yl)methyl)-2,7-diazaspiro[3.5]nonan-2-yl)pyrimidin-5-yl)oxy)-N-(2,2-difluoroethyl)-5-fluoro-N-isopropylbenzamide], the figure is less than 0.1 µM; as for `CC(C)N(CC(F)F)C(=O)c1cc(F)ccc1Oc1cncnc1N1CC2(CCN(C[C@@H]3CC[C@@H](NS(=O)(=O)N(C)C(C)C)CO3)CC2)C1` [Example 101, N-(2,2-Difluoroethyl)-5-fluoro-N-isopropyl-2-((4-(7-(((2S,5R)-5-((N-isopropyl-N-methylsulfamoyl)amino)tetrahydro-2H-pyran-2-yl)methyl)-2,7-diazaspiro[3.5]nonan-2-yl)pyrimidin-5-yl)oxy)benzamide], less than 0.1 µM. To `CNS(=O)(=O)N[C@@H]1CC[C@@H](CN2CCC3(CC2)CN(c2ncncc2Oc2ccc(F)cc2C(=O)N(CC(F)F)C(C)C)C3)OC1` [Example 102, N-(2,2-Difluoroethyl)-5-fluoro-N-isopropyl-2-((4-(7-(((2S,5R)-5-((N-methylsulfamoyl)amino)tetrahydro-2H-pyran-2-yl)methyl)-2,7-diazaspiro[3.5]nonan-2-yl)pyrimidin-5-yl)oxy)benzamide] belongs less than 0.1 µM. As for `CC(C)N(CC(F)(F)F)C(=O)c1cc(F)ccc1Oc1cncnc1N1CC2(CCN(C[C@@H]3CC[C@@H](NS(=O)(=O)N(C)C)CO3)CC2)C1` [Example 107, 2-((4-(7-(((2S,5R)-5-((N,N-Dimethylsulfamoyl)amino)tetrahydro-2H-pyran-2-yl)methyl)-2,7-diazaspiro[3.5]nonan-2-yl)pyrimidin-5-yl)oxy)-5-fluoro-N-isopropyl-N-(2,2,2-trifluoroethyl)benzamide], the figure is less than 0.1 µM; as for `CC(C)N(CC(F)(F)F)C(=O)c1cc(F)ccc1Oc1cncnc1N1CC2(CCN(C[C@@H]3CC[C@@H](NS(=O)(=O)N4CCOCC4)CO3)CC2)C1` [Example 108, 5-Fluoro-N-isopropyl-2-((4-(7-(((2S,5R)-5-(morpholine-4-sulfonamido)tetrahydro-2H-pyran-2-yl)methyl)-2,7-diazaspiro[3.5]nonan-2-yl)pyrimidin-5-yl)oxy)-N-(2,2,2-trifluoroethyl)benzamide], less than 0.1 µM. In the case of `CC(C)N(CC(F)(F)F)C(=O)c1cc(F)ccc1Oc1cncnc1N1CC2(CCN(C[C@@H]3CC[C@@H](NS(=O)(=O)C(C)C)CO3)CC2)C1` [Example 109, 5-Fluoro-N-isopropyl-2-((4-(7-(((2S,5R)-5-((1-methylethyl)sulfonamido)tetrahydro-2H-pyran-2-yl)methyl)-2,7-diazaspiro[3.5]nonan-2-yl)pyrimidin-5-yl)oxy)-N-(2,2,2-trifluoroethyl)benzamide], the IC50 was less than 0.1 µM.

As for `CC(C)N(C(=O)c1cc(F)ccc1Oc1cncnc1N1CC2(CCN(C[C@@H]3CC[C@@H](NS(=O)(=O)C(C)C)CO3)CC2)C1)C1CC(F)(F)C1` [Example 110, N-(3,3-Difluorocyclobutyl)-5-fluoro-N-isopropyl-2-((4-(7-(((2S,5R)-5-((1-methylethyl)sulfonamido)tetrahydro-2H-pyran-2-yl)methyl)-2,7-diazaspiro[3.5]nonan-2-yl)pyrimidin-5-yl)oxy)benzamide], the IC50 was less than 0.1 µM. `CC(C)N(C(=O)c1cc(F)ccc1Oc1cncnc1N1CC2(CCN(C[C@@H]3CC[C@@H](NS(=O)(=O)C4CC4)CO3)CC2)C1)C1CC(F)(F)C1` [Example 111, 2-((4-(7-(((2S,5R)-5-(Cyclopropanesulfonamido)tetrahydro-2H-pyran-2-yl)methyl)-2,7-diazaspiro[3.5]nonan-2-yl)pyrimidin-5-yl)oxy)-N-(3,3-difluorocyclobutyl)-5-fluoro-N-isopropylbenzamide]: the IC50 is less than 0.1 µM.
